We go through six compounds from ChEMBL document CHEMBL1142608, “A ceramide and cerebroside from the starfish asterias amurensis Lütken and their plant-growth promotion activities” (J Nat Prod, 2006).

The source made the active and inactive calls. The calls are words filed in the database; no cut-off is given here.

One experiment deals with Brassica rapa subsp. oleifera. The experiment is described as follows: Growth-promoting activity in Brassica campestris assessed as root growth at 25 degC after 1 week by filter paper assay under 12 hrs/12 hrs light-dark cycle condition. The format is functional, organism-based.
As for `CCCCCCCC/C=C\CCCCCCCC[C@@H](O)[C@@H](O)[C@H](CO)NC(=O)[C@H](O)CCCCCCCCCCCCCC`, the result was Active.

The test system of another experiment is Brassica rapa subsp. oleifera. The experiment is described as follows: Growth-promoting activity in Brassica campestris assessed as whole body growth at 25 degC after 1 week by filter paper assay under 12 hrs/12 hrs light-dark cycle condition. The format is functional, organism-based.
For `CC(C)CC(=O)C[C@@](C)(O)[C@H]1CC[C@H]2[C@@H]3C[C@H](O[C@@H]4O[C@H](C)C(=O)[C@H](O[C@@H]5O[C@H](C)[C@@H](O[C@@H]6O[C@H](C)[C@H](O)[C@H](O)[C@H]6O[C@@H]6O[C@H](C)[C@H](O)[C@H](O)[C@H]6O)[C@H](O)[C@H]5O[C@@H]5O[C@H](C)[C@@H](O)[C@H](O)[C@H]5O)[C@H]4O)[C@H]4C[C@@H](OS(=O)(=O)O)CC[C@]4(C)C3=CC[C@@]21C`, the result was inactive.
Turning to `CCCCCCCC/C=C\CCCCCCC/C=C/[C@@H](O)[C@H](CO[C@@H]1O[C@H](CO)[C@@H](O)[C@H](O)[C@H]1O)NC(=O)[C@H](O)CCCCCCCCCCCCC`, the result was Active.
Take `CCCCCCCC/C=C\CCCCCCC/C=C/[C@@H](O)[C@H](CO[C@@H]1O[C@H](CO)[C@@H](O)[C@H](O)[C@H]1O)NC(=O)[C@H](O)CCCCCCCCCCCC`: the result was Active.
In the case of `CCCCCCCC/C=C\CCCCCC/C=C/[C@@H](O)[C@H](CO[C@@H]1O[C@H](CO)[C@@H](O)[C@H](O)[C@H]1O)NC(=O)[C@H](O)CCCCCCCCCCCCCC`, the result was Active.
On the same count and under the same terms, the same measure for `CC(C)CC(=O)C[C@@](C)(O)[C@H]1CC[C@H]2[C@@H]3C[C@H](O[C@@H]4O[C@H](C)[C@@H](O)[C@H](O[C@@H]5OC[C@@H](O[C@@H]6O[C@H](CO)[C@H](O)[C@H](O)[C@H]6O[C@@H]6O[C@H](C)[C@@H](O)[C@H](O)[C@H]6O)[C@H](O)[C@H]5O[C@H]5O[C@@H](C)[C@H](O)[C@@H](O)[C@@H]5O)[C@H]4O)[C@H]4C[C@@H](OS(=O)(=O)O)CC[C@]4(C)C3=CC[C@@]21C`: “inactive”.
